# US20260234187A1, “ANTIMICROBIAL PEPTIDES” (MATERIAS S.R.L., priority 2020, published 2026)
# Like-named read-outs stand apart in the source and are kept apart here. Where no end group is shown, it is not given here.
# Key:
# [1] = assay type: physicochemical
# Protocol: The structural and conformational characterization of the RiLK1 peptide was assessed by investigating its secondary structure by ^1H NMR spectroscopy in H2O and in a micellar solution of SDS at a concentration of 150 mM to mimic the condition of the bacterial cell membrane.
# In fact, the representative structures of the RiLK1 peptide in water show a random orientation of both polar and hydrophobic amino acid side chains.
# The helical structure appears well defined and stabilized by hydrophobic interactions of amino acid residues located on the opposite face. It is important to note that, in this arrangement, all the charged side chains are iso-oriented and well prone to interact with the negatively charged surface of the SDS micelles. Furthermore, the two tryptophan residues within the RiLK1 sequence are located at an optimal distance for their mutual stacking, thus contributing to the stabilization of the helix. It should be pointed out that the ^1H NMR spectra of the peptide IDR-1018-K6 (described in patent application WO2019012158) could not be acquired in the presence of micellar solutions of SDS since it is not soluble at the concentrations required to carry out these assays. […] Therefore, it is possible to assert that the NMR analysis in the presence of SDS has shown that the RiLK1 peptide of the present invention is capable of adopting the helix conformation, whereas the IDR-1018-K6 peptide (object of patent WO2019012158) has poor solubility and a heterogeneous system not suitable for NMR structural characterization (Table 2).
# [2] = assay type: physicochemical; conditions: 50 μM in 1M NaCl, 25° C.
# Protocol: The stability analysis of the RiLK1 peptide in the presence of a high concentration saline solution (1M NaCl) was carried out by reverse phase (RP) HPLC chromatography, performed on a μBondpack C18 column. 50 μM RiLK1 peptide was dissolved in 1 M NaCl and the samples were incubated at 25° C. and monitored for 9 days.
# [3] = assay type: physicochemical; conditions: Tris HCL pH 7, 3 mM SDS
# Protocol: 0.1 g/L of RiLK1 peptide was dissolved in 10 mM Tris HCL at pH 7 and 3 mM SDS. The prepared samples were incubated for 24 hours at 4° C. or 25° C. and analysed at time zero and after 24 hours.
# S. typhimurium = assay type: cell-based, Salmonella typhimurium; conditions: S. typhimurium
# Protocol: The evaluation of the Minimum Bactericidal Concentration (MBC), i.e., the lowest concentration of antimicrobial agent capable of 99.9% inhibition of bacterial growth on plates, was carried out as described in Bílikova et al, (2015, Peptides 68:190-196). […] It should be noted that the peptide object of the present invention is more powerful and efficient than the peptide IDR-1018-K6 (described in patent application WO2019012158) against the pathogenic bacteria L. monocytogenes and S. typhimurium, with bactericidal concentration values 4-fold and 7-fold lower, respectively, compared to those shown by IDR-1018-K6.
# [4] = tested on: Candida albicans (ATCC 14053); assay: activity against yeast, plate count, MFC; assay type: cell-based; conditions: C. albicans; 25 μM, 6 h
# Protocol: The inhibitory activity of the RiLK1 peptide was determined against the yeast Candida albicans. A stock culture was prepared in which 10^5 CFUs of C. albicans were inoculated in 10 ml of buffered peptone water. A reference strain (ATCC 14053) was used for this species. The culture was incubated for 6 h at 37° C. with the RiLK1 peptide at 25 μM concentrations. At the same time, control samples were incubated without adding the peptide. 100 μl of the samples thus prepared were seeded on DG18 plates (Dichloran 18% Glycerol Agar-ISO 21527-2) and incubated at 25° C. for 7 days. All experimental conditions investigated used the plate count method to estimate the antimycotic activity of the peptide. Specifically, the numbers of colonies grown on agar plates seeded with the cultures in the absence or presence of the individual peptide dilutions were counted and compared. The standard deviations of the triplicate incubations of each plate were determined using statistical software. The evaluation of the Minimum Fungicidal Concentration (MFC), i.e., the lowest concentration of antifungal agent capable of 99.9% inhibition of fungal growth on plates, was carried out as described in Bílikova et al, (2015, Peptides 68:190-196).
substance,measurement,setting,value
"RLKWVRIWRR-NH2 [RiLK1, RLKWVRIWRR]",solubility,[1],1000 µM
same,solubility,[1]; pH 4.4,900 µM
same,yield,[2]; 5 hours,+6%
same,yield,[2]; 24 hours,+6%
same,yield,[2]; 29 hours,+3%
same,yield,[2]; 48 hours,−1.5%^
same,yield,[2]; 53 hours,+4.3%^
same,yield,[2]; 6 days,−6.3%^
same,yield,[2]; 9 days,−8%
same,Random (Bestsel),"[3]; 4° C., t = 24 hours",47.5%
same,Random (DichroWeb CONTIN-LL),"[3]; 4° C., t = 24 hours",38%
same,α-helix (Bestsel),"[3]; 4° C., t = 24 hours",6.5%
same,α-helix (DichroWeb CONTIN-LL),"[3]; 4° C., t = 24 hours",25%
same,β-sheet (Bestsel),"[3]; 4° C., t = 24 hours",46%
same,β-sheet (DichroWeb CONTIN-LL),"[3]; 4° C., t = 24 hours",37%
same,Random (Bestsel),"[3]; 25° C., t = 24 hours",43.6%
same,Random (DichroWeb CONTIN-LL),"[3]; 25° C., t = 24 hours",37%
same,α-helix (Bestsel),"[3]; 25° C., t = 24 hours",6.8%
same,α-helix (DichroWeb CONTIN-LL),"[3]; 25° C., t = 24 hours",24%
same,β-sheet (Bestsel),"[3]; 25° C., t = 24 hours",49.7%
same,β-sheet (DichroWeb CONTIN-LL),"[3]; 25° C., t = 24 hours",39%
same,Random (Bestsel),[3]; t = 0,44.9%
same,Random (DichroWeb CONTIN-LL),[3]; t = 0,36%
same,α-helix (Bestsel),[3]; t = 0,17.9%
same,α-helix (DichroWeb CONTIN-LL),[3]; t = 0,21%
same,β-sheet (Bestsel),[3]; t = 0,37.1%
same,β-sheet (DichroWeb CONTIN-LL),[3]; t = 0,43%
same,bactericidal concentration lower compared to IDR-1018-K6,S. typhimurium,7 fold
same,Drop Log CFU/ml,[4],5 Log CFU/ml
same,post-treatment decrease in the fungal load,[4],5 Log
